{"source": "patent US20250340538A1", "about": "“IMIDAZOLONE DERIVATIVES AS INHIBITORS OF PROTEIN KINASES IN PARTICULAR DYRK1A, CLK1 AND/OR CLK4” (PERHA PHARMACEUTICALS, priority 2021, published 2025)", "format_in_all_cases": "biochemical", "key": {"DYRK4": {"target": "T1, DYRK4 (Homo sapiens, UniProt Q9NR20)", "T1 construct": "GST-fusion or His-tag (not specified per kinase); purchased ProQinase GmbH; host or cells: Sf9 insect cells or E. coli (not specified per kinase)", "T1 sequence (Q9NR20 1-520)": "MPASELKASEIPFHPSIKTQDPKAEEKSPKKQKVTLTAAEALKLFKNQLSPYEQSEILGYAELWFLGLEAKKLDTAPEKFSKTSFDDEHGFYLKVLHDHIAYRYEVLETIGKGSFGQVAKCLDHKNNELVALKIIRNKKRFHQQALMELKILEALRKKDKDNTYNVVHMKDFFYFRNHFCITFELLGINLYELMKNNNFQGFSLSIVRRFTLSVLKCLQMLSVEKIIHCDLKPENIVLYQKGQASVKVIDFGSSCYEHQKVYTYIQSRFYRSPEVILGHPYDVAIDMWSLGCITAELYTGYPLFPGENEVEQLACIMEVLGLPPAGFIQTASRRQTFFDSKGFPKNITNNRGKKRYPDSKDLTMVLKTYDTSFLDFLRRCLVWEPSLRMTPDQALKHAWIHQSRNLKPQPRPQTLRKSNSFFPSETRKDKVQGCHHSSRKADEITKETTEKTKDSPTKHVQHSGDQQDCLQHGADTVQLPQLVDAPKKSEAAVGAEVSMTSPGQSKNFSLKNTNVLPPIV", "assay": "Radiometric protein kinase assay (33PanQinase Activity Assay), DYRK4", "details": "read-out: IC50 on DYRK4 (most potent DYRK4 inhibitors)", "experimental": "(§1) Assays were performed by ProQinase GmbH (Engesserstr. 4, D-79108 Freiburg, Germany. www.proqinase.com). The IC50 profile of all compounds was determined using 12 protein kinases (CDK2/cyclin E, CK1ε, CLK1, 2, 3, 4, DYRK1A, 1B, 2, 3, 4, GSK3β).\n(§2) The compounds were provided as […] in 100% DMSO. Prior to testing, the 1 μM stock solutions were subjected to a serial, semi-logarithmic dilution using 100% DMSO as a solvent. […] In the process, 90 μl H2O were added to each well of each compound dilution plate. To minimize potential precipitation, the H2O was added to each plate only a few minutes before the transfer of the compound solutions into the assay plates. The plate was shaken thoroughly, resulting in a compound dilution plate/10% DMSO.\nFor the assays (see below), 5 μL solution from each well of the compound dilution plates/10% DMSO were transferred into the assay plates. The final volume of the assay was 50 μL. All compounds were tested at 10 final assay concentrations in the range from 10 μM to 30 nM. The final DMSO concentration in the reaction cocktails was 1% in all cases. […]\nThe reaction cocktails were incubated at 30° C. for 60 minutes. […] Incorporation of ^33Pi was determined with a microplate scintillation counter (Microbeta, Wallac). The IC50 values for all compounds were calculated from the dose response curves […]"}, "CLK1": {"target": "T2, CLK1 (Homo sapiens, UniProt P49759)", "T2 construct": "GST-fusion or His-tag (not specified per kinase); purchased ProQinase GmbH; host or cells: Sf9 insect cells or E. coli (not specified per kinase)", "T2 sequence (P49759 whole entry, the tested form may be a part)": "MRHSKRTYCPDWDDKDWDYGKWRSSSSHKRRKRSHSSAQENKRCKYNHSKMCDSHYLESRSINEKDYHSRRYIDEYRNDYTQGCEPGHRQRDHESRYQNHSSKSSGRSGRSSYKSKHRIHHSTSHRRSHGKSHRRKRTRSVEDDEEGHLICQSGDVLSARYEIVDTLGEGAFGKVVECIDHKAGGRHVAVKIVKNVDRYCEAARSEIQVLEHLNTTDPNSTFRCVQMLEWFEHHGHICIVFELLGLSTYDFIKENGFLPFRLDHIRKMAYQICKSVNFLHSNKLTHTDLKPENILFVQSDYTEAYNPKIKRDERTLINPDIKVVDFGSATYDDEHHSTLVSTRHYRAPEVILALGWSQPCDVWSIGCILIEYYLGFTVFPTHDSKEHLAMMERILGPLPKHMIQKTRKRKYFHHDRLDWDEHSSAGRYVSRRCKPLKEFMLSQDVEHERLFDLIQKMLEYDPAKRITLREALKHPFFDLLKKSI", "assay": "Radiometric protein kinase assay (33PanQinase Activity Assay), CLK1", "details": "read-out: Potency Class CLK1", "method_in_brief": "(§3)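 IC50 derived from dose-response curves over 10 concentrations (10 μM–30 nM, 1% DMSO final) by scintillation counting of 33Pi incorporation. Reactions with [γ-33P]-ATP ran 60 min at 30 °C using human recombinant kinases expressed in Sf9 or E. coli as tagged full-length proteins or active fragments.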"}, "DYRK1B": {"target": "T3, DYRK1B (Homo sapiens, UniProt Q9Y463)", "T3 construct": "GST-fusion or His-tag (not specified per kinase); purchased ProQinase GmbH; host or cells: Sf9 insect cells or E. coli (not specified per kinase)", "T3 sequence (Q9Y463 whole entry, the tested form may be a part)": "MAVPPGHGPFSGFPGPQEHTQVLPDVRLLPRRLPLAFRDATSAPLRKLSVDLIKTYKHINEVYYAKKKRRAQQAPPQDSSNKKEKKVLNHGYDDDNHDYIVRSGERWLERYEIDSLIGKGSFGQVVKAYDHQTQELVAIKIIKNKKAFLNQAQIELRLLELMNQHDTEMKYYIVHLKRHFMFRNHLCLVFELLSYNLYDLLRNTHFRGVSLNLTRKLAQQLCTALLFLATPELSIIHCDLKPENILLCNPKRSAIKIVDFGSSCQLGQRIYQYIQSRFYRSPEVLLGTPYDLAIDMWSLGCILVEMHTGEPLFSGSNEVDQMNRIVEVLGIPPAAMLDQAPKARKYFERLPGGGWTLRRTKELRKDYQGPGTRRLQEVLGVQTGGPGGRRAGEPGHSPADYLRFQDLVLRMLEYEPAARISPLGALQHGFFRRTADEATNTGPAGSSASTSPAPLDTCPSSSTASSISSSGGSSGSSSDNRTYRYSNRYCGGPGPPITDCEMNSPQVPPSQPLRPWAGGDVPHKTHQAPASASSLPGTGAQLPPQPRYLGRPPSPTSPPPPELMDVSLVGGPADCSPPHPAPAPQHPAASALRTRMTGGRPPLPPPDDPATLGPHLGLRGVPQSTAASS", "assay": "Radiometric protein kinase assay (33PanQinase Activity Assay), DYRK1B", "details": "read-out: IC50 on DYRK1B (most potent DYRK1B inhibitors)", "experimental": "as §1, §2\nFor the assays (see below), 5 μL solution from each well of the compound dilution plates/10% DMSO were transferred into the assay plates. The final volume of the assay was 50 μL. All compounds were tested at 10 final assay concentrations in the range from 10 μM to 30 nM. The final DMSO concentration in the reaction cocktails was 1% in all cases.\nAll protein kinases provided by ProQinase were expressed in Sf9 insect cells or in E. coli as recombinant GST-fusion proteins or His-tagged proteins, either as full-length or enzymatically active fragments. All kinases were produced from human cDNAs and purified by either GSH-affinity chromatography or immobilized metal. Affinity tags were removed from a number of kinases during purification. The purity of the protein kinases was examined by SDS-PAGE/Coomassie staining, the identity was checked by mass spectroscopy.\nA radiometric protein kinase assay (33PanQinase® Activity Assay) was used for measuring the kinase activity of the 12 protein kinases. All kinase assays were performed in 96-well FlashPlates™ from PerkinElmer (Boston, MA, USA) in a 50 μL reaction volume. The reaction cocktail was pipetted in four steps in the following order: • 25 μL of assay buffer (standard buffer/[γ-^33P]-ATP), • 10 μL of ATP solution (in H2O), • 5 μL of test compound (in 10% DMSO), • 10 μL of enzyme/substrate mixture.\nThe reaction cocktails were incubated at 30° C. for 60 minutes. The reaction was stopped with 50 μL of 2% (v/v) H3PO4, plates were aspirated and washed two times with 200 μL 0.9% (w/v) NaCl. Incorporation of ^33Pi was determined with a microplate scintillation counter (Microbeta, Wallac). The IC50 values for all compounds were calculated from the dose response curves\nAs a parameter for assay quality, the Z′-factor (Zhang et al., J. Biomol. Screen. 2: 67-73, 1999) for the low and high controls of each assay plate (n=8) was used. ProQinase's criterion for repetition of an assay plate is a Z′-factor below 0.4 (Iversen et al., J. Biomol. Screen. 3: 247-252, 2006)."}, "CLK2": {"target": "T4, CLK2 (Homo sapiens, UniProt P49760)", "T4 construct": "GST-fusion or His-tag (not specified per kinase); purchased ProQinase GmbH; host or cells: Sf9 insect cells or E. coli (not specified per kinase)", "T4 sequence (P49760 whole entry, the tested form may be a part)": "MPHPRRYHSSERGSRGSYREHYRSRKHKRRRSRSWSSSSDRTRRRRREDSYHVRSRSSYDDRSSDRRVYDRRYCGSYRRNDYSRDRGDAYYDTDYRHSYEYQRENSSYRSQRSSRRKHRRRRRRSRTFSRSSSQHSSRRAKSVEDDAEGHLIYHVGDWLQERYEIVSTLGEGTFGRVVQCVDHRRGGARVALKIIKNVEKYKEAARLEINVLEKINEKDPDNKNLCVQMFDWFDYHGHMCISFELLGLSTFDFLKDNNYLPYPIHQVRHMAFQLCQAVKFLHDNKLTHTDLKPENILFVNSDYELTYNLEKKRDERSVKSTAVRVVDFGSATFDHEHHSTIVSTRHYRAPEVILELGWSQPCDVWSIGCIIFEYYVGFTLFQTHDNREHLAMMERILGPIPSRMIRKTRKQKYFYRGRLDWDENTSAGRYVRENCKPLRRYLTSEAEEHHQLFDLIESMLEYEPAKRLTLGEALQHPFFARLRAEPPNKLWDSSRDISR", "assay": "Radiometric protein kinase assay (33PanQinase Activity Assay), CLK2", "details": "read-out: IC50 on CLK2 (most potent CLK2 inhibitors)", "method_in_brief": "as §3"}}, "note": "Read-outs that look alike come from different tables or passages of the source."}
{"molecule": "O=C1NC(NC23CC4CC(CC(O)(C4)C2)C3)=N/C1=C\\c1ccc2ncccc2c1", "note": "[Compound 50, (4Z)-2-[(3-hydroxy-1-adamantyl)amino]-4-(6-quinolylmethylene)-1H-imidazol-5-one]", "values": [{"measurement": "IC50", "setting": "DYRK4", "result": "≤ 300", "unit": "nM"}, {"measurement": "IC50", "setting": "CLK1; IC50 class A to E", "result": "10 to 25", "unit": "nM"}, {"measurement": "IC50", "setting": "CLK1; class by IC50 on CLK1, from dose-response curves", "result": "10 to 25", "unit": "nM"}, {"measurement": "IC50", "setting": "DYRK1B", "result": "≤ 10", "unit": "nM"}, {"measurement": "IC50", "setting": "CLK2", "result": "≤ 100", "unit": "nM"}]}
